In patent publication US6291515A, “Use of efomycins” (Bayer Aktiengesellschaft, priority 1996, dated 2001):

Assays:
Format in all cases: cell-based
[1] = tested on: adhesion of PMNL to albumin-coated plastic surfaces; assay: Adhesion of PMNL to albumin-coated plastic surfaces; settings: test described in EP 0 461 499 A2 (Use Example 1)
Source text: The adhesion test to albumin-coated plastic surfaces is described in detail, inter alia, in EP 0 461 499 A2 (Use Example 1).

[2] = tested on: adhesion of pig PMNL to hypoxia-stimulated pig aorta; assay: Inhibition of PMNL adhesion to hypoxia-stimulated pig aortas, pig PMNL; settings: for % adherent PMNL, Pig PMNL: hypoxia-stimulated pig aorta, proportion of adherent PMNL vs control (=100), 90-minute coincubation at 37° C., MPO readout
Experimental: (§1) Freshly isolated pig aortas were brought into the laboratory from the local slaughterhouse in oxygen-aerated, phosphate-buffered saline solution (PBS). Freshly obtained pig or human blood was taken for the preparation of polymorphonuclear neutrophilic granulocytes (PMNL). The aortas were stimulated by placing them for 30 minutes in PBS which was aerated with nitrogen (hypoxia stimulus). The aorta were then fixed between a Teflon block (below) and a specially made steel plate (above) with drilled wells (similar to a microtiter plate). PMNL and the potential adhesion inhibitors were added to the luminal side, i.e. to the stimulated endothelial cell layer, in cell media (M199, Gibco). After a 90-minute coincubation at 37° C. in an incubator, the wells were washed. The remaining adherent PMNL were lysed. The activity of the PMNL-specific myeloperoxidase (MPO) in the lysate was determined photometrically and compared to the untreated control (only solvent). […] The proportion of the adherent PMNL in comparison with the control is indicated.
(§2) Inhibition of the adhesion of pig PMNL or human PMNL to hypoxia-stimulated pig aorta by efomycins

[3] = tested on: cultured endothelial cells; assay: MTT test for cytotoxicity on endothelial cells; settings: at efficacious concentrations
[4] = tested on: adhesion of human PMNL to hypoxia-stimulated pig aorta; assay: Inhibition of PMNL adhesion to hypoxia-stimulated pig aortas, human PMNL; settings: proportion of adherent PMNL vs control (=100), 90-minute coincubation at 37° C., MPO readout
Experimental: as §1, §2

SMILES | inhibition of adhesion of PMNL to albumin-coated plastic surfaces [1] | activity in the test model described (PMNL adhesion to hypoxia-stimulated pig aorta), in words ([2]; PMNL species not given) | % adherent PMNL, Pig PMNL [2] | cytotoxicity against endothelial cells in the MTT test [3] | % adherent PMNL, Human PMNL [4]
CC[C@@H](/C=C/C(=O)[C@@H](C)[C@H](O)[C@H](C)[C@H]1OC(=O)/C=C/C=C/[C@H](C)[C@@H]([C@@H](C)[C@@H](O)[C@H](C)C(=O)/C=C/[C@H](CC)[C@@H](C)O)OC(=O)/C=C/C=C/[C@@H]1C)[C@@H](C)O [Ex. No. 1] | does not inhibit | active | 33 ± 23% | no cytotoxicity | 52 ± 2%
CC[C@@H](/C=C/C(=O)[C@@H](C)[C@H](OC(C)=O)[C@H](C)[C@H]1OC(=O)/C=C/C=C/[C@H](C)[C@@H]([C@@H](C)[C@@H](OC(C)=O)[C@H](C)C(=O)/C=C/[C@H](CC)[C@@H](C)OC(C)=O)OC(=O)/C=C/C=C/[C@@H]1C)[C@@H](C)OC(C)=O [Ex. No. 2] |  |  | 85 ± 11% |  | 90 ± 5%
